{"source": "ChEMBL document CHEMBL4602605", "about": "“Fluoroquinolones structural and medicinal developments (2013-2018): Where are we now?” (Bioorg Med Chem, 2019)", "assay_type_in_all_cases": "functional", "key": {"[1]": {"system": "Pseudomonas aeruginosa", "experiment": "Antimicrobial activity against Pseudomonas aeruginosa ATCC 43288 incubated for 18 to 24 hrs by microbroth dilution method"}, "[2]": {"system": "Yersinia pseudotuberculosis", "experiment": "Antimicrobial activity against Yersinia pseudotuberculosis ATCC 911 incubated for 18 to 24 hrs by microbroth dilution method"}, "[3]": {"system": "Staphylococcus aureus", "experiment": "Antimicrobial activity against Staphylococcus aureus ATCC 25923 incubated for 18 to 24 hrs by microbroth dilution method"}, "[4]": {"system": "Enterococcus faecalis", "experiment": "Antimicrobial activity against Enterococcus faecalis ATCC 29212 incubated for 18 to 24 hrs by microbroth dilution method"}, "[5]": {"system": "Bacillus cereus", "experiment": "Antimicrobial activity against Bacillus cereus 709 Roma incubated for 18 to 24 hrs by microbroth dilution method"}, "[6]": {"system": "Mycolicibacterium smegmatis", "experiment": "Antimicrobial activity against Mycobacterium smegmatis ATCC 607 incubated for 48 to 72 hrs by microbroth dilution method"}, "[7]": {"system": "Staphylococcus aureus", "experiment": "Antimicrobial activity against methicillin-resistant Staphylococcus aureus ATCC 25923 by microdilution method"}, "[8]": {"system": "Escherichia coli", "experiment": "Antimicrobial activity against Escherichia coli ATCC […] by microdilution method"}, "[9]": {"system": "Escherichia coli", "experiment": "Antimicrobial activity against multidrug resistance Escherichia coli ATCC 35218 by microdilution method"}, "[10]": {"system": "Staphylococcus aureus", "experiment": "Antimicrobial activity against Staphylococcus aureus ATCC 29213 by microdilution method"}, "[11]": {"system": "Helicobacter pylori", "experiment": "Antimicrobial activity against Helicobacter pylori clinical isolate 1 after 7 days by two-fold agar dilution method", "settings": "clinical isolate 1, 168 h"}, "[12]": {"system": "Helicobacter pylori", "experiment": "Antimicrobial activity against Helicobacter pylori clinical isolate 2 after 7 days by two-fold agar dilution method", "settings": "clinical isolate 2, 168 h"}, "[13]": {"system": "Pseudomonas aeruginosa", "experiment": "Antimicrobial activity against Pseudomonas aeruginosa ATCC 27853 incubated for 18 to 24 hrs by disk diffusion method"}, "[14]": {"system": "Escherichia coli", "experiment": "Antimicrobial activity against Escherichia coli ATCC 25922 incubated for 18 to 24 hrs by disk diffusion method"}, "[15]": {"system": "Staphylococcus aureus", "experiment": "Antimicrobial activity against Staphylococcus aureus ATCC 25923 incubated for 18 to 24 hrs by disk diffusion method"}, "[16]": {"system": "Bacillus subtilis", "experiment": "Antimicrobial activity against Bacillus subtilis 10B incubated for 18 to 24 hrs by disk diffusion method"}, "[17]": {"system": "Staphylococcus aureus", "experiment": "Antimicrobial activity against methicillin-susceptible Staphylococcus aureus ATCC 29213 incubated for 16 hrs by CLSI method", "settings": "ATCC 29213, 16 h"}, "[18]": {"system": "Staphylococcus aureus", "experiment": "Antimicrobial activity against healthcare-acquired methicillin-resistant Staphylococcus aureus NRS70 incubated for 16 hrs by CLSI method", "settings": "NRS70, 16 h"}, "[19]": {"system": "Aspergillus clavatus", "experiment": "Antifungal activity against Aspergillus clavatus after overnight incubation by agar well diffusion method; note: test concentration or dose not given here"}, "[20]": {"system": "Candida albicans", "experiment": "Antifungal activity against Candida albicans after overnight incubation by agar well diffusion method; note: test concentration or dose not given here"}, "[21]": {"system": "Mycobacterium tuberculosis", "experiment": "Antimicrobial activity against Mycobacterium tuberculosis H37Rv incubated for 10 days by microbroth dilution method", "settings": "240 h"}}}
{"smiles": "CCn1cc(C(=O)O)c(=O)c2cc(F)c(N3CCN(Cn4nc(CN5CCN(c6ccc([N+](=O)[O-])cc6)CC5)n(-c5ccccc5)c4=S)CC3)cc21", "values": [{"measurement": "MIC", "setting": "[1]", "result": "0.03 to 0.24", "unit": "µg/mL"}, {"measurement": "MIC", "setting": "[2]", "result": 0.06, "unit": "µg/mL"}, {"measurement": "MIC", "setting": "[3]", "result": "0.24 to 0.48", "unit": "µg/mL"}, {"measurement": "MIC", "setting": "[4]", "result": "0.122 to 0.25", "unit": "µg/mL"}, {"measurement": "MIC", "setting": "[5]", "result": "0.12 to 0.24", "unit": "µg/mL"}, {"measurement": "MIC", "setting": "[6]", "result": "0.244 to 0.25", "unit": "µg/mL"}]}
{"smiles": "CCN1CCN(N(Cn2nc3c(F)cc4c(=O)c(C(=O)O)cn(C5CC5)c4n3c2=O)N2CCN(CC)CC2)CC1", "values": [{"measurement": "MIC", "setting": "[7]", "result": "≤ 0.5", "unit": "µg/mL"}, {"measurement": "MIC", "setting": "[8]", "result": "≤ 0.125", "unit": "µg/mL"}, {"measurement": "MIC", "setting": "[9]", "result": "≤ 0.25", "unit": "µg/mL"}, {"measurement": "MIC", "setting": "[10]", "result": "≤ 0.125", "unit": "µg/mL"}]}
{"smiles": "Cc1ccc(-n2nnc3c4c(cc(F)c32)c(=O)c(C(=O)O)cn4C2CC2)cc1", "values": [{"measurement": "MIC", "setting": "[11]", "result": 5, "unit": "µg/mL"}, {"measurement": "MIC", "setting": "[12]", "result": 1.3, "unit": "µg/mL"}]}
{"smiles": "O=C(O)c1cn(C2CC2)c2c(cc(F)c3nn(CN(N4CCCCC4)N4CCCCC4)c(=O)n32)c1=O", "values": [{"measurement": "MIC", "setting": "[7]", "result": "≤ 8", "unit": "µg/mL"}, {"measurement": "MIC", "setting": "[8]", "result": "≤ 1", "unit": "µg/mL"}, {"measurement": "MIC", "setting": "[9]", "result": "≤ 4", "unit": "µg/mL"}, {"measurement": "MIC", "setting": "[10]", "result": "≤ 1", "unit": "µg/mL"}]}
{"smiles": "CCn1cc(C(=O)O)c(=O)c2cc(F)c(N3CCN(Cn4nc(CN5CCN(c6ccc([N+](=O)[O-])cc6)CC5)n(-c5ccccc5)c4=O)CC3)cc21", "values": [{"measurement": "MIC", "setting": "[1]", "result": "0.24 to 0.48", "unit": "µg/mL"}, {"measurement": "MIC", "setting": "[2]", "result": "0.03 to 0.25", "unit": "µg/mL"}, {"measurement": "MIC", "setting": "[3]", "result": "0.24 to 0.48", "unit": "µg/mL"}, {"measurement": "MIC", "setting": "[4]", "result": 0.122, "unit": "µg/mL"}, {"measurement": "MIC", "setting": "[5]", "result": "0.03 to 0.25", "unit": "µg/mL"}, {"measurement": "MIC", "setting": "[6]", "result": "0.244 to 0.25", "unit": "µg/mL"}]}
{"smiles": "CN1CCN(N(Cn2nc3c(F)cc4c(=O)c(C(=O)O)cn(C5CC5)c4n3c2=O)N2CCN(C)CC2)CC1", "values": [{"measurement": "MIC", "setting": "[7]", "result": "≤ 2", "unit": "µg/mL"}, {"measurement": "MIC", "setting": "[8]", "result": "≤ 0.25", "unit": "µg/mL"}, {"measurement": "MIC", "setting": "[9]", "result": "≤ 2", "unit": "µg/mL"}, {"measurement": "MIC", "setting": "[10]", "result": "≤ 0.25", "unit": "µg/mL"}]}
{"smiles": "Nc1c(Nc2ccc(F)cc2)c(F)cc2c(=O)c(C(=O)O)cn(C3CC3)c12", "values": [{"measurement": "MIC", "setting": "[11]", "result": 2.5, "unit": "µg/mL"}, {"measurement": "MIC", "setting": "[12]", "result": 5, "unit": "µg/mL"}]}
{"smiles": "COc1ccc(-n2nnc3c4c(cc(F)c32)c(=O)c(C(=O)O)cn4C2CC2)cc1", "values": [{"measurement": "MIC", "setting": "[11]", "result": 2.5, "unit": "µg/mL"}, {"measurement": "MIC", "setting": "[12]", "result": 1.3, "unit": "µg/mL"}]}
{"smiles": "CCn1cc(C(=O)O)c(=O)c2cc(F)c(NNc3n[nH]c(N)n3)c(F)c21", "values": [{"measurement": "MIC", "setting": "[13]", "result": "> 500", "unit": "µg/mL"}, {"measurement": "MIC", "setting": "[14]", "result": 390, "unit": "µg/mL"}, {"measurement": "MIC", "setting": "[15]", "result": 240, "unit": "µg/mL"}, {"measurement": "MIC", "setting": "[16]", "result": "> 500", "unit": "µg/mL"}]}
{"smiles": "CCn1cc(C(=O)O)c(=O)c2cc(F)c(-n3cc(CO[C@H]4O[C@@H](C)[C@H](OC(C)=O)[C@@H](OC(C)=O)[C@H]4OC(C)=O)nn3)c(F)c21", "values": [{"measurement": "MIC", "setting": "[7]", "result": "≤ 16", "unit": "µg/mL"}, {"measurement": "MIC", "setting": "[8]", "result": "≤ 4", "unit": "µg/mL"}, {"measurement": "MIC", "setting": "[9]", "result": "≤ 16", "unit": "µg/mL"}, {"measurement": "MIC", "setting": "[10]", "result": "≤ 4", "unit": "µg/mL"}]}
{"smiles": "COc1c(N2CC3CCCCC3C2)c(F)cc2c(=O)c(C(=O)N3CCSC3)cn(C3CC3)c12", "note": "(stereo unspecified)", "values": [{"measurement": "MIC90", "setting": "[17]", "result": 0.79, "unit": "µg/mL"}, {"measurement": "MIC90", "setting": "[18]", "result": 0.79, "unit": "µg/mL"}]}
{"smiles": "COc1c(N2CCN(C)CC2)c(F)cc2c(=O)c(C(=O)N/N=C\\c3cccc([N+](=O)[O-])c3)cn(C3CC3)c12", "values": [{"measurement": "inhibition zone (IZ)", "setting": "[19]", "result": 10, "unit": "mm"}, {"measurement": "inhibition zone (IZ)", "setting": "[20]", "result": 12, "unit": "mm"}]}
{"smiles": "CCO/N=C1/CN(CCCn2cc(CN3CCCC4CN(c5c(F)cc6c(=O)c(C(=O)O)cn(C7CC7)c6c5OC)CC43)nn2)c2ccc(F)cc21", "note": "(stereo unspecified)", "values": [{"measurement": "MIC", "setting": "[21]", "result": 12.5, "unit": "µg/mL"}]}
{"smiles": "COc1c(N2CC3=CCCCC3C2)c(F)cc2c(=O)c(C(=O)N3CCSC3)cn(C3CC3)c12", "note": "(stereo unspecified)", "values": [{"measurement": "MIC90", "setting": "[17]", "result": 6.3, "unit": "µg/mL"}, {"measurement": "MIC90", "setting": "[18]", "result": 6.3, "unit": "µg/mL"}]}
{"smiles": "COc1c(F)c(F)cc2c(=O)c(C(=O)N3CCSC3)cn(C3CC3)c12", "values": [{"measurement": "MIC90", "setting": "[17]", "result": "> 201", "unit": "µg/mL"}, {"measurement": "MIC90", "setting": "[18]", "result": "> 201", "unit": "µg/mL"}]}
{"smiles": "COc1c(N2CC3CCCCC3C2)c(F)cc2c(=O)c(C(=O)Nc3nccs3)cn(C3CC3)c12", "note": "(stereo unspecified)", "values": [{"measurement": "MIC90", "setting": "[17]", "result": "> 201", "unit": "µg/mL"}, {"measurement": "MIC90", "setting": "[18]", "result": "> 201", "unit": "µg/mL"}]}
{"smiles": "Nc1c(Nc2ccccc2)c(F)cc2c(=O)c(C(=O)O)cn(C3CC3)c12", "values": [{"measurement": "MIC", "setting": "[11]", "result": 0.6, "unit": "µg/mL"}, {"measurement": "MIC", "setting": "[12]", "result": 1.3, "unit": "µg/mL"}]}
{"smiles": "CCn1cc(C(=O)O)c(=O)c2cc(F)c(Nn3c(=O)[nH]cc(F)c3=O)c(F)c21", "values": [{"measurement": "MIC", "setting": "[13]", "result": "> 500", "unit": "µg/mL"}, {"measurement": "MIC", "setting": "[14]", "result": 120, "unit": "µg/mL"}, {"measurement": "MIC", "setting": "[15]", "result": 390, "unit": "µg/mL"}, {"measurement": "MIC", "setting": "[16]", "result": "> 500", "unit": "µg/mL"}]}
{"smiles": "COc1c(N2CCOCC2)c(F)cc2c(=O)c(C(=O)Nc3nccs3)cn(C3CC3)c12", "values": [{"measurement": "MIC90", "setting": "[17]", "result": "> 201", "unit": "µg/mL"}, {"measurement": "MIC90", "setting": "[18]", "result": "> 201", "unit": "µg/mL"}]}
{"smiles": "C[C@H]1COc2c(-c3cc4cc(Br)ccc4oc3=O)c(F)cc3c(=O)c(C(=O)O)cn1c23", "values": [{"measurement": "MIC", "setting": "[21]", "result": 12.5, "unit": "µg/mL"}]}
{"smiles": "CCn1cc(C(=O)O)c(=O)c2cc(F)c(N3CCN(Cn4nc(CN5CCN(c6ccc([N+](=O)[O-])cc6)CC5)n(-c5ccc(F)cc5)c4=O)CC3)cc21", "values": [{"measurement": "MIC", "setting": "[1]", "result": 0.24, "unit": "µg/mL"}, {"measurement": "MIC", "setting": "[2]", "result": 0.12, "unit": "µg/mL"}, {"measurement": "MIC", "setting": "[3]", "result": 0.48, "unit": "µg/mL"}, {"measurement": "MIC", "setting": "[4]", "result": 0.122, "unit": "µg/mL"}, {"measurement": "MIC", "setting": "[5]", "result": 0.12, "unit": "µg/mL"}, {"measurement": "MIC", "setting": "[6]", "result": 0.244, "unit": "µg/mL"}]}
{"smiles": "COc1c(N2CCCCC2)c(F)cc2c(=O)c(C(=O)Nc3nccs3)cn(C3CC3)c12", "values": [{"measurement": "MIC90", "setting": "[17]", "result": "> 201", "unit": "µg/mL"}, {"measurement": "MIC90", "setting": "[18]", "result": "> 201", "unit": "µg/mL"}]}
